Data published in patent US20230303572A1, “18-MC SALT FORMS” (Mind Medicine, Inc., priority 2022, published 2023).
“Also recorded” adds a separate entry of the source. Counter-ions that a name gives are not always drawn.

What was measured:
Type in all cases: physicochemical
[1] = Physical form stability on storage at RT, air drying or exposure to ambient conditions (XRPD); conditions: for form change after exposure to ambient conditions (XRPD): exposure to ambient conditions for ~30 min; for Form after treatment: metastable forms; for physical stability at ambient conditions: time not stated
Excerpt: (§1) For XRPD analysis, a PANalytical Empyrean and X′ Pert3 X-ray powder diffract meter was used.

[2] = Heating experiments and VT-XRPD (N2 drying, heating, cooling back): form change; conditions: for form conversion, summary statement: after desolvation; for Form after heating: solid form by XRPD after heating, cells marked *, # have footnotes that are not shown; for form change after heating (XRPD/VT-XRPD): heating to 100° C.; for form change after N2 drying (VT-XRPD): N2-drying for 30 min at 30° C.
Excerpt: as §1

[3] = Relative thermodynamic stability of HCl salt forms (desolvation and form conversion data); conditions: for Form after desolvation: solvates of HCl salt
Description: Starting from HCl salt materials with different forms, a total of 100 polymorph screening experiments was performed using different crystallization methods including salt formation by liquid vapor diffusion/slurry at elevated temperature, evaporation at RT/high temperatures, slurry and reverse anti-solvent addition at different temperatures, slow/crash cooling, polymer induced crystallization and grinding. All the resulting solids were isolated for XRPD test, and new forms were further characterized by TGA, DSC, ^1H NMR and HPLC/ IC.
An additional polymorph screening was performed for 18-MC HCl salt.

[4] = after air drying or RT storage, duration not stated
[5] = after storage or heating experiments
[6] = the solid turn to gel-like after air drying at RT in a few minutes

## COCC[C@H]1CC2CN3CCc4c([nH]c5ccccc45)[C@](C(=O)OC)(C2)[C@H]13 [tosylate Type I, 18-methoxycoronaridine]
[1]; open dish for ~3 hrs
  form change after open dish (XRPD): converted back to tosylate Type A with an extra peak of tosylate Type B

## COCC[C@H]1CC2CN3CCc4c([nH]c5ccccc45)[C@](C(=O)OC)(C2)[C@H]13 [HCl salt Type R, 18-methoxycoronaridine]
[2]
  form conversion, summary statement: converted to HCl salt Type A
[2]; heating to 170° C. and cooling back to ambient condition
  form change after heating (XRPD): converted to HCl salt Type A
[3]
  Form after desolvation: HCl salt Type A

## COCC[C@H]1CC2CN3CCc4c([nH]c5ccccc45)[C@](C(=O)OC)(C2)[C@H]13 [sulfate Type C, 18-methoxycoronaridine]
[1]; [4]
  form conversion, summary statement: converted to sulfate Type A
[1]; air drying at RT for ~30 min
  form change after air drying (XRPD): converted to sulfate Type A

## COCC[C@H]1CC2CN3CCc4c([nH]c5ccccc45)[C@](C(=O)OC)(C2)[C@H]13 [besylate Type C, 18-methoxycoronaridine]
[1]
  form change after exposure to ambient conditions (XRPD): converted back to besylate Type A

## COCC[C@H]1CC2CN3CCc4c([nH]c5ccccc45)[C@](C(=O)OC)(C2)[C@H]13 [HCl salt Type A+L, 18-methoxycoronaridine]
[1]; storage at RT for ~22 days
  form change after storage (XRPD): converted to HCl salt Type A completely

## COCC[C@H]1CC2CN3CCc4c([nH]c5ccccc45)[C@](C(=O)OC)(C2)[C@H]13 [HCl salt Type L, 18-methoxycoronaridine]
[2]
  Form after heating: HCl salt Type A
[1]; RT storage
  Form after treatment: HCl salt Type A^#
[1]; [4]
  form conversion, summary statement: converted to HCl salt Type A

## COCC[C@H]1CC2CN3CCc4c([nH]c5ccccc45)[C@](C(=O)OC)(C2)[C@H]13 [HCl salt Type J, 18-methoxycoronaridine]
[2]
  Form after heating: HCl salt Type F*
[1]; RT storage
  Form after treatment: HCl salt Type F^#

## COCC[C@H]1CC2CN3CCc4c([nH]c5ccccc45)[C@](C(=O)OC)(C2)[C@H]13 [HCl salt Type T, 18-methoxycoronaridine]
[2]
  form conversion, summary statement: converted to HCl salt Type A
[2]; heating to 150° C.
  form change after heating (XRPD): most diffraction peaks were consistent with HCl salt Type A
[3]
  Form after desolvation: HCl salt Type A

## COCC[C@H]1CC2CN3CCc4c([nH]c5ccccc45)[C@](C(=O)OC)(C2)[C@H]13 [HBr salt Type D, 18-methoxycoronaridine]
[2]
  form change after heating (XRPD/VT-XRPD): extra peak of HBr salt Type A was observed
[2]; heating to 150° C.
  form change after heating (XRPD): most diffraction peaks of the sample were consistent with HBr salt Type A
[1]; [5]
  form conversion, summary statement: could convert to HBr salt Type A

## COCC[C@H]1CC2CN3CCc4c([nH]c5ccccc45)[C@](C(=O)OC)(C2)[C@H]13 [HCl salt Type D, 18-methoxycoronaridine]
[2]
  Form after heating: HCl salt Type A*
[1]; Air drying
  Form after treatment: HCl salt Type A**

## COCC[C@H]1CC2CN3CCc4c([nH]c5ccccc45)[C@](C(=O)OC)(C2)[C@H]13 [tosylate Type H, 18-methoxycoronaridine]
[1]; air drying for ~3 hours
  form change after air drying (XRPD): form change to tosylate Type A
[1]; form characterization summary of tosylate
  Speculated form (physical stability): Metastable

## COCC[C@H]1CC2CN3CCc4c([nH]c5ccccc45)[C@](C(=O)OC)(C2)[C@H]13 [HCl salt Type G, 18-methoxycoronaridine]
[2]
  Form after heating: HCl salt Type A**
[1]; RT storage
  Form after treatment: HCl salt Type A^#

## COCC[C@H]1CC2CN3CCc4c([nH]c5ccccc45)[C@](C(=O)OC)(C2)[C@H]13 [HCl salt Type K, 18-methoxycoronaridine]
[1]; Exposure to ambient conditions (~50%RH), XRPD form
  Form change after treatment: HCl salt Type F^#

## COCC[C@H]1CC2CN3CCc4c([nH]c5ccccc45)[C@](C(=O)OC)(C2)[C@H]13 [HCl salt Type E, 18-methoxycoronaridine]
[2]
  Form after heating: HCl salt Type A**
[1]; Air drying
  Form after treatment: HCl salt Type A**

## COCC[C@H]1CC2CN3CCc4c([nH]c5ccccc45)[C@](C(=O)OC)(C2)[C@H]13 [tosylate Type C, 18-methoxycoronaridine]
[2]
  form change after N2 drying (VT-XRPD): form change was observed for tosylate Type C. The new form was assigned as tosylate Type D
[1]; storage at RT for about 2.5 month
  form change after storage (XRPD): form change to tosylate Type B

## COCC[C@H]1CC2CN3CCc4c([nH]c5ccccc45)[C@](C(=O)OC)(C2)[C@H]13 [HCl salt Type N, 18-methoxycoronaridine]
[1]; RT storage
  Form after treatment: HCl salt Type A^#
[1]; [4]
  form conversion, summary statement: converted to HCl salt Type A

## COCC[C@H]1CC2CN3CCc4c([nH]c5ccccc45)[C@](C(=O)OC)(C2)[C@H]13 [HCl salt Type A+O, 18-methoxycoronaridine]
[1]; storage at RT for ~19 days
  form change after storage (XRPD): converted to HCl salt Type A completely

## COCC[C@H]1CC2CN3CCc4c([nH]c5ccccc45)[C@](C(=O)OC)(C2)[C@H]13 [mesylate Type B, 18-methoxycoronaridine]
[1]
  physical stability at ambient conditions: not found to be physically stable at ambient conditions and easily converted to gels/oils
[1]; [6]
  Speculated form (physical stability): Metastable*

## COCC[C@H]1CC2CN3CCc4c([nH]c5ccccc45)[C@](C(=O)OC)(C2)[C@H]13 [HCl salt Type V, 18-methoxycoronaridine]
[1]; Air drying
  Form after treatment: HCl salt Type A**
[1]; [4]
  form conversion, summary statement: converted to HCl salt Type A
[1]; air drying for ~3 hours
  form change after air drying (XRPD): converted to HCl salt Type A completely

## COCC[C@H]1CC2CN3CCc4c([nH]c5ccccc45)[C@](C(=O)OC)(C2)[C@H]13 [HBr salt Type C, 18-methoxycoronaridine]
[2]
  form change after heating (XRPD/VT-XRPD): peak of HBr salt Type A was observed
[2]; heating to 150° C.
  form change after heating (XRPD): most diffraction peaks were consistent with HBr salt Type A
[1]; [5]
  form conversion, summary statement: could convert to HBr salt Type A

## COCC[C@H]1CC2CN3CCc4c([nH]c5ccccc45)[C@](C(=O)OC)(C2)[C@H]13 [HCl salt Type A, 18-methoxycoronaridine]
[3]; at RT
  thermodynamic stability among HCl salt forms: thermodynamically more stable than other anhydrates; also recorded: most thermodynamically stable form
[3]; temperature not stated
  thermodynamic stability among hydrochloride salt forms: most thermodynamically stable form

## COCC[C@H]1CC2CN3CCc4c([nH]c5ccccc45)[C@](C(=O)OC)(C2)[C@H]13 [HCl salt Type A+N, 18-methoxycoronaridine]
[1]; storage at RT for ~21 days
  form change after storage (XRPD): converted to HCl salt Type A completely

## COCC[C@H]1CC2CN3CCc4c([nH]c5ccccc45)[C@](C(=O)OC)(C2)[C@H]13 [HCl salt Type O, 18-methoxycoronaridine]
[1]; RT storage
  Form after treatment: HCl salt Type A^#
[1]; [4]
  form conversion, summary statement: converted to HCl salt Type A

## COCC[C@H]1CC2CN3CCc4c([nH]c5ccccc45)[C@](C(=O)OC)(C2)[C@H]13 [tosylate Type D, 18-methoxycoronaridine]
[2]
  form change after heating (XRPD/VT-XRPD): no form change
[2]; heating to 140° C. under N2 protection
  form change after heating (VT-XRPD): an amorphous pattern was observed
[1]
  form change after exposure to ambient conditions (XRPD): converted to tosylate Type B

## COCC[C@H]1CC2CN3CCc4c([nH]c5ccccc45)[C@](C(=O)OC)(C2)[C@H]13 [tosylate Type A, 18-methoxycoronaridine]
[2]
  form change after N2 drying (VT-XRPD): no form change
  form change after heating (XRPD/VT-XRPD): a form change was observed, which was assigned as tosylate Type I
[1]; storage at RT for ~7 days
  form change after storage (XRPD): peak of tosylate Type B was observed
[1]; storage for 3 weeks
  form change after storage (XRPD): totally converted to tosylate Type B

## COCC[C@H]1CC2CN3CCc4c([nH]c5ccccc45)[C@](C(=O)OC)(C2)[C@H]13 [sulfate Type F, 18-methoxycoronaridine]
[2]
  form change after heating (XRPD/VT-XRPD): remained sulfate Type F
[1]
  physical stability at ambient conditions: not physically stable
  form change after exposure to ambient conditions (XRPD): converted back to sulfate Type D

## COCC[C@H]1CC2CN3CCc4c([nH]c5ccccc45)[C@](C(=O)OC)(C2)[C@H]13 [mesylate Type C, 18-methoxycoronaridine]
[1]
  physical stability at ambient conditions: not found to be physically stable at ambient conditions and easily converted to gels/oils
[1]; [6]
  Speculated form (physical stability): Metastable*

## COCC[C@H]1CC2CN3CCc4c([nH]c5ccccc45)[C@](C(=O)OC)(C2)[C@H]13 [HCl salt Type I, 18-methoxycoronaridine]
[3]
  Form after desolvation: HCl salt Type A
